# Measured values reported in patent US20240335456A1, “CO-CRYSTAL COMPOSITION AND ITS PHARMACEUTICAL USE” (SYN-NAT PRODUCTS ENTERPRISE LLC, priority 2015, published 2024).
# Several values for one entry are separate records, joined by “and”; a condition that tells them apart may be missing. Equal values may be shown once.
# Columns and labels:
# [1] = tested on: benign prostatic hyperplasia (BPH); test: Mouse model of BPH (white cell number, lecithin density, prostate tissue); assay type: in vivo
# Source text: In the BPH model group (FIG. 7), glands proliferation and a small amount of lymphocytes and plasma cells were shown.
# [2] = tested on: Human fibroblast-like synoviocytes rheumatoid arthritis (HFLS-RA) cells; test: HFLS-RA cell proliferation (cell numbers 48 hours after treatment); assay type: cell-based
# Description: Human fibroblast-like synoviocytes rheumatoid arthritis (HFLS-RA) cells were cultured in vitro and proliferation of the cells was measured by quantifying cells numbers 48 hours after treatment. The cells were treated with DCP at concentrations of 1.563 μg/ml; 3.125 μg/ml; 6.25 μg/ml; 12.5 μg/ml; 25 μg/ml; 50 μg/ml; or 100 μg/ml.
# [3] = tested on: Human MH7A synovial cells; test: MH7A synovial cell proliferation (cell numbers 48 hours after treatment); assay type: cell-based
# Description: Human MH7A synovial cells were cultured in vitro and proliferation of the cells was measured by quantifying cells numbers 48 hours after treatment. The cells were treated with DCP at concentrations of 1.563 μg/ml; 3.125 μg/ml; 6.25 μg/ml; 12.5 μg/ml; 25 μg/ml; 50 μg/ml; or 100 μg/ml.
# nonbacterial prostatitis = test: Mouse model for prostatitis, prostate tissue pathology; assay type: in vivo
# Source text: Mouse model for prostatitis was utilized to study the effects of DCP.
# [4] = tested on: benign prostatic hyperplasia (BPH); test: Study of DCP in male cancer patients also suffering from BPH; assay type: in vivo, human
# [5] = tested on: rheumatoid arthritis, osteoarthritis, arthrolithiasis (gout); test: Phase II and Phase III clinical trials in SCLC patients also suffering from rheumatoid arthritis, osteoarthritis, gout and other diseases; assay type: in vivo, human; details: DCP 1 to about 10 mg/kg body weight
# Description: DCP alleviated symptoms for clinical trial patients suffering from multiple diseases. In China, DCP (1 to about 10 mg/kg body weight) in combination with cisplatin and Paclitaxel were used in Phase II and Phase III clinical trials for treatment of patients having small cell lung cancer (SCLC). The cancer patients were simultaneously suffering from a number of proliferative diseases, degenerative diseases, immunological diseases, and other diseases as indicated above. For example, some of the patients were suffering from rheumatoid arthritis, osteoarthritis, arthrolithiasis (gout) and/or other diseases. […] Such diseases include at least rheumatoid arthritis, osteoarthritis, and arthrolithiasis (gout). […] When DCP was administered with an additional therapeutic agent or adjuvant therapy agent such as folic acid, coenzyme Q10, curcumin, glutathione (GSH), aloe vera, oryzanol, 5-fluorouracil, bortezomib, the effects to reduce disease symptoms were further enhanced.
# [6] = Phase I dose-escalation, Chinese cancer patients; cited from earlier work
# [7] = 48 hours after treatment, 1.563-100 μg/ml
# [8] = majority of BPH patients, after two weeks of use
compound,measurement,setting,value
"CC(C)(C)NC(=O)[C@H]1CC[C@H]2[C@@H]3CC[C@H]4NC(=O)C=C[C@]4(C)[C@H]3CC[C@]12C [PROSCAR, Finasteride, reference compound]","Prostate tissue findings (inflammation cells, glandular proliferation)","[1]; PROSCAR drug group, FIG. 8","glandular proliferation was not clear, but inflammation cells were reduced"
Dicycloplatin [DCP],"IC50, inhibition of HFLS-RA cell proliferation",[2]; [7],3.914 µg/mL and 3.125 µg/mL
same,HFLS-RA cell proliferation inhibited,[2]; FIG. 1,99%
same,"IC50, inhibition of MH7A cell proliferation",[3]; [7],8.926 µg/mL and 8.92 µg/mL
same,MH7A cell proliferation inhibited,[3]; FIG. 2,99%
same,"Effective amount for human, based on the effective amount in mice",nonbacterial prostatitis; extrapolated from mouse prostatitis model,1 to 10 mg/Kg body weight
same,Outcome of mice with nonbacterial prostatitis,nonbacterial prostatitis; treatment for 1-2 weeks,returned to normal
same,Granulomatous lesions in prostate tissue,"nonbacterial prostatitis; treatment for one week, FIG. 5",significantly reduced in some tissues or eliminated in others
same,Inflammatory cells in interstitial infiltration,"nonbacterial prostatitis; treatment for one week, FIG. 5",significantly reduced
same,Lecithin corpuscle (density),[1]; DCP injection,30 ± 0.53
same,White cell (number/μL),[1]; DCP injection,3250 ± 65 number/μL
same,Lecithin corpuscle (density),[1]; DCP oral,27 ± 0.50
same,White cell (number/μL),[1]; DCP oral,3500 ± 71 number/μL
same,Enlargement of prostate,[1]; after treatment for a therapeutic period,significant inhibited
same,"Prostate tissue findings (inflammatory cells, glandular proliferation)","[1]; intravenous administration, FIG. 9","inflammatory cells were significantly reduced, and glandular proliferation was inhibited"
same,"Prostate tissue findings (inflammatory cells, glandular proliferation)","[1]; oral administration, FIG. 10",inflammatory cells were significantly reduced and glandular proliferation was inhibited
same,Enlargement of prostate,[4]; [8],obviously inhibited
same,Maximum of urinary volume,[4]; [8],more than 12 mL/s
same,PSA,[4]; [8],decreased
same,Symptoms of BPH,[4]; male patients with cancers and BPH,significantly alleviated
same,Side effects,[5],less patients receiving DCP alone were suffering from side effects and the side effects were of less severity
same,"Symptoms of proliferative, degenerative, immunological and other diseases",[5],significantly alleviated the symptoms
same,Tolerated doses,[6],100 to 550 mg/m^2
